The values that follow come from patent publication US7713948B2, “Use of 5-substituted nucleosides for reinforcing the apoptotic effect of cytostatic drugs” (Resprotect GmbH, priority 2003, dated 2010).

For data set [1], the system named is APURINIC ENDONUCLEASE; APE; APE1; APEX. The experiment in a line: Two-dimensional gel electrophoresis, APEX. Type of data set: cell-based. Conditions: co-treatment of MMC with BVDU. From the text: (§1) Listing of the proteins influenced by the treatment with base analogues and mitomycin C. The results of the implementation of a two-dimensional gel electrophoresis are compiled in the following Table 2.

The test system of a further data set is AH13r tumour cells. In words: Hoechst 33258/propidium iodide (Hopi) double colouration for apoptosis. The class given is cell-based. Conditions: HOPI double colouration of AH13r tumour cells of the rat.
The next data set deals with STAT3. The experiment in a line: Western Blot analysis of survival pathways, STAT3. The class given is cell-based. Conditions: after DOX treatment, recovery phase (only BVDU given, no cytostatic). From the text:
(§2) We tested different “survival pathways” by means of Western Blot analysis. The analyses were implemented according to standard methods, as is described in Sambrook et al., 2001, Molecular Cloning (3rd ed.). Antibody dilutions: P-STAT3 (cell signalling) 1:500, JUN-D (Santa Cruz, Calif.) 1:1,000.
(§3) The densitometrically determined content of oncogene proteins JUN-D and STAT3 was reduced by a quarter or two thirds after DOX treatment in the recovery phase (r=recovery phase). In the “recovery” only BVDU is given, no cytostatic.
A general note: A western blot detects proteins with antibodies after separation by electrophoresis.

The subject of data set [2] is UBIQUITIN-CONJUGATING ENZYME E2N; UBE2N. In words: Two-dimensional gel electrophoresis, UBE2N. The class given is cell-based. Conditions: co-treatment of MMC with BVDU.
Description: as §1

For the next data set, the system named is JUN-D. In words: Western Blot analysis of survival pathways, JUN-D. The class given is cell-based.
Description: as §2, §3

The subject of another data set is AH13r sarcoma cells. The experiment in a line: AH13r cell number under increasing doses of cytostatic with or without BVDU, followed by recovery phase. The class given is cell-based, rat. Conditions: for cell number: cytostatic + BVDU after three treatment cycles, in comparison to cytostatic alone. The source says:
This effect was established by means of a screening system according to the invention. This screening method is based on the treatment of tumour cells during a chemotherapy cycle over a period of preferably eight to thirty days with increasing doses of a cytostatic and a constant dose of the overexpression inhibitor. After this combination treatment, the cytostatic is discontinued and the treatment is continued solely with the overexpression inhibitor. This recovery phase (also called recovery phase) lasts preferably between 3 and 10 days. Chemotherapy cycles of this type can be implemented successively up to 6 times.
AH13r cells were subjected to increasing doses of the cytostatic mitomycin C (MMC). […] This inhibitory effect was maintained even after discontinuation of the cytostatic in the next cycle, in the so-called recovery phase. The cells without MMC and BVDU continued to grow without inhibition.

In data set [3] the test system is dimethybenzanthracene (DMBA) induced tumours. The experiment in a line: DMBA-induced tumours in SD rats, tumour size. Type of data set: in vivo. Conditions: DOX 1 mg/kg. The method, then: (§4) The reduction in toxic side effects of doxorubicin (DOX) was able to be shown in the test with rats (see Table 1). SD rats were treated with dimethybenzanthracene (DMBA). […] During the treatment and one day after each treatment, i.e. in the recovery phase, the animals obtained respectively 15 mg/kg BVDU.

Data set [4] can be described thus: DMBA tumour test in SD rats, animal weight (toxic side effects). Type of data set: in vivo. The method, then: DT-D inactivates ROS and thus protects cells from non-specific ROS and electrophilic attacks. […] DOX treatment alone leads to weight losses because of the toxic side effects. It is certain that only the side effects (possibly the cardiotoxicity characteristic of DOX) are reduced by BVDU but not the toxic effects on the tumour.
as §4

Entries after “also recorded” stand apart in the source; their conditions may differ.

For the compound `O=c1[nH]c(=O)n([C@H]2C[C@H](O)[C@@H](CO)O2)cc1/C=C/Br` [BVDU, (E)-5-(2-bromovinyl)-2′-deoxyuridine], in data set [1], the “reduction of overexpression of APEX” value is on record as “approximately one third”. Besides, the apoptosis entry in the data set on AH13r tumour cells is listed as “promotes apoptosis”. Also, the “reduction of densitometrically determined content of STAT3” value with STAT3 is “approximately two thirds”. Also, in data set [2], the “reduction of overexpression of UBE2N” value is recorded as “approximately one third”. For the same compound, the “inhibition of MMC induced JUN-D overexpression” value in the data set with JUN-D (BVDU given in the recovery after MMC) is listed as “complete inhibition”. For the same compound, the “reduction of densitometrically determined content of JUN-D” value in the data set on JUN-D (after DOX treatment, recovery phase (only BVDU given, no cytostatic)) is recorded as “approximately one quarter; also recorded: a quarter”. In the data set with AH13r sarcoma cells (after discontinuation of the cytostatic, BVDU continued alone), the “cell growth in the recovery phase” value is “greatly inhibited in their growth”. In addition, the “toxic effect on cells” value with AH13r sarcoma cells (given alone) is recorded as “no toxic effect”.
For the compound `COc1cccc2c1C(=O)c1c(O)c3c(c(O)c1C2=O)C[C@@](O)(C(=O)CO)C[C@@H]3O[C@H]1C[C@H](N)[C@H](O)[C@H](C)O1` [DOX, doxorubicin], the apoptosis entry in the data set with AH13r tumour cells is given as “initiate apoptosis”. Further, in data set [3] (DMBA-induced tumours, BVDU 15 mg/kg, average of 5-8 rats, Day 1), the “Relative tumour size Day 1” value came out at 1. The “Relative tumour size Day 16” value in data set [3] (DMBA-induced tumours, BVDU 15 mg/kg, average of 5-8 rats, Day 16) is reported as 1.5. Besides, the “growth of DMBA-induced tumours” value in data set [3] was “inhibited in their growth”. In addition, the “Relative animal weight Day 1” value in data set [4] (SD rats, DMBA-induced tumours, DOX 1 mg/kg, BVDU 15 mg/kg, average of 5-8 rats, Day 1) stood at 0. The “Relative animal weight Day 16” value in data set [4] (SD rats, DMBA-induced tumours, DOX 1 mg/kg, BVDU 15 mg/kg, average of 5-8 rats, Day 16) is given as −7%. Moreover, the “animal weight change (toxic side effects)” value in data set [4] (rat, in vivo) is reported as “weight losses”. The cell number entry with AH13r sarcoma cells was “Corresponding results”.
With `CO[C@@]12[C@H](COC(N)=O)C3=C(C(=O)C(C)=C(N)C3=O)N1C[C@@H]1N[C@@H]12` [MMC, mitomycin C], the apoptosis entry with AH13r tumour cells is on record as “initiate apoptosis”.
As for `CN(Cc1cnc2nc(N)nc(N)c2n1)c1ccc(C(=O)N[C@@H](CCC(=O)O)C(=O)O)cc1` [MTX, methotrexate], the cell number entry in the data set on AH13r sarcoma cells is “Corresponding results”.
With `O=C1c2c(O)ccc(O)c2C(=O)c2c(NCCNCCO)ccc(NCCNCCO)c21` [MXA, mitoxantrone], in the data set on AH13r tumour cells, the apoptosis entry was “initiate apoptosis”. Further, the cell number entry in the data set with AH13r sarcoma cells was “Corresponding results”.
